Active and inactive are the calls of the source.
How the values were obtained:
[1] = IC50 of Artemis nuclease activity blockers – biochemical, fluorescence intensity, dose response (AID 720701); format: functional;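 also: Artemis endonuclease enzyme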
[2] = rise of 2N DNA cells, HeLa – IC50, dose response (AID 1117349); format: functional, cell-based
[3] = rise of 4N DNA cells, HeLa – IC50, dose response (AID 1117351); format: functional, cell-based
[4] = viability inhibitors of stage V gametocytes – luminescence, dose response (AID 1117278); format: functional, cell-based;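 also: gametocytes exposed to compound for 24 hours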
[5] = viability loss in human Jurkat cells – cell-based, luminescence, cytotoxicity control for P. falciparum gametocyte viability project, dose response (AID 1117277); format: functional;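 also: potency reflects loss of cellular ATP meaning fewer viable cells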
[6] = molecular target: Endoplasmic reticulum aminopeptidase 1 (Homo sapiens, UniProt Q9NZ08); assay: inhibition of human ERAP1 enzyme activity – biochemical, cherry-pick, set 2, plate reader, dose response (AID 743314)
[7] = Luminescence-based cell-based high throughput dose response assay to identify activators of the DAF-12 from the parasite S. stercoralis (ssDAF-12).; format: functional
[8] = NIH-3T3 fibroblast cytotoxicity, dose response, cytotoxicity control, cell-based, fluorescence, Alamar Blue, secondary assay (AID 2327); format: functional;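 also: NIH-3T3 mouse fibroblasts cultured with fluconazole at 8 µg/mL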
Aminopeptidase N = molecular target: T1, Aminopeptidase N (Plasmodium falciparum FcB1/Columbia, UniProt O96935); assay: malaria alanyl aminopeptidase activity blockers – biochemical, fluorogenic H-Leu-NHMec substrate, 1536-well (AID 1445); design: species or system Plasmodium falciparum 3D7, 3D7
T1 sequence (O96935 whole entry): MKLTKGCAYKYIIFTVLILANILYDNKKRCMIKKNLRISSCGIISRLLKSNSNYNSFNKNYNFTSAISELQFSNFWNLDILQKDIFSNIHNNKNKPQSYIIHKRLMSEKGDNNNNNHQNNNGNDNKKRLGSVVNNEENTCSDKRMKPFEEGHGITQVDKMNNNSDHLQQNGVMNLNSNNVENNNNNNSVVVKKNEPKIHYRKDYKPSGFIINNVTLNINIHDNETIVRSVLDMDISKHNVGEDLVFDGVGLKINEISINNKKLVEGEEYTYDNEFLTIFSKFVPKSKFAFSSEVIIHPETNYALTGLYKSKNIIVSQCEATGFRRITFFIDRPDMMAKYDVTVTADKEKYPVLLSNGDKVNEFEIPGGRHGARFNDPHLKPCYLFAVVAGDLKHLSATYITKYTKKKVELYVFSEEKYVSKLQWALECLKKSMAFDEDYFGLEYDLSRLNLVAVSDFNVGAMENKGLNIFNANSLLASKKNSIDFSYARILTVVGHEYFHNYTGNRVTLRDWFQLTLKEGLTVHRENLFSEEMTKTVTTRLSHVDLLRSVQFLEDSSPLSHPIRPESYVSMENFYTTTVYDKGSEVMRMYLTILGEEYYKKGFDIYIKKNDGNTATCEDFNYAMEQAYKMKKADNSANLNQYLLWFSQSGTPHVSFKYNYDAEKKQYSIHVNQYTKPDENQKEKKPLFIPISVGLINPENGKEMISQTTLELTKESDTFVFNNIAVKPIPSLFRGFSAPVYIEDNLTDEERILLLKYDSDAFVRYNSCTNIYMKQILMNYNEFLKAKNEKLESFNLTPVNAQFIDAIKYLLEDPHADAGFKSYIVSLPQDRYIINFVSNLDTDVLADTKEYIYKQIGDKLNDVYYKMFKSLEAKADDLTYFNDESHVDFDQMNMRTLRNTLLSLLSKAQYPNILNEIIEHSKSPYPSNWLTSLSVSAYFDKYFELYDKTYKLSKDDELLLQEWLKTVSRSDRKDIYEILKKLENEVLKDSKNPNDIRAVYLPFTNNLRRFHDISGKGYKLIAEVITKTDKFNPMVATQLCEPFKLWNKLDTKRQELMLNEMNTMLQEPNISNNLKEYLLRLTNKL

[9] = fluconazole-exposed Candida albicans growth modulators – fluorescence, retest, confirmation (AID 2467); format: functional, cell-based
INS1 = assay: INS-1E survival protection against cytokine death – cell-based, luminescence, retest, dose response (AID 449756); format: functional; settings: Rattus norvegicus;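 also: cell death triggered by IL-1 beta plus TNF-alpha plus IFN-gamma mixture; protective hits raise ATP signal compared with cytokine alone wells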
[10] = viability loss in HepG2 hepatoma cells – cell-based, ATP luminescence, cherry-pick, activator set 2, cytotoxicity control, dose response (AID 1053143); format: functional
Vero = assay: cells; format: functional; settings: Chlorocebus sabaeus
Prothrombin = Prothrombin (Homo sapiens, UniProt P00734); assay: Thrombin 1536 HTS Dose Response Confirmation. [Related pubchem assays: 1046 (Thrombin 1536 HTS; hits were confirmed in this assay)]; format: functional

Chain of Endoplasmic reticulum aminopeptidase 1 (Q9NZ08 whole entry): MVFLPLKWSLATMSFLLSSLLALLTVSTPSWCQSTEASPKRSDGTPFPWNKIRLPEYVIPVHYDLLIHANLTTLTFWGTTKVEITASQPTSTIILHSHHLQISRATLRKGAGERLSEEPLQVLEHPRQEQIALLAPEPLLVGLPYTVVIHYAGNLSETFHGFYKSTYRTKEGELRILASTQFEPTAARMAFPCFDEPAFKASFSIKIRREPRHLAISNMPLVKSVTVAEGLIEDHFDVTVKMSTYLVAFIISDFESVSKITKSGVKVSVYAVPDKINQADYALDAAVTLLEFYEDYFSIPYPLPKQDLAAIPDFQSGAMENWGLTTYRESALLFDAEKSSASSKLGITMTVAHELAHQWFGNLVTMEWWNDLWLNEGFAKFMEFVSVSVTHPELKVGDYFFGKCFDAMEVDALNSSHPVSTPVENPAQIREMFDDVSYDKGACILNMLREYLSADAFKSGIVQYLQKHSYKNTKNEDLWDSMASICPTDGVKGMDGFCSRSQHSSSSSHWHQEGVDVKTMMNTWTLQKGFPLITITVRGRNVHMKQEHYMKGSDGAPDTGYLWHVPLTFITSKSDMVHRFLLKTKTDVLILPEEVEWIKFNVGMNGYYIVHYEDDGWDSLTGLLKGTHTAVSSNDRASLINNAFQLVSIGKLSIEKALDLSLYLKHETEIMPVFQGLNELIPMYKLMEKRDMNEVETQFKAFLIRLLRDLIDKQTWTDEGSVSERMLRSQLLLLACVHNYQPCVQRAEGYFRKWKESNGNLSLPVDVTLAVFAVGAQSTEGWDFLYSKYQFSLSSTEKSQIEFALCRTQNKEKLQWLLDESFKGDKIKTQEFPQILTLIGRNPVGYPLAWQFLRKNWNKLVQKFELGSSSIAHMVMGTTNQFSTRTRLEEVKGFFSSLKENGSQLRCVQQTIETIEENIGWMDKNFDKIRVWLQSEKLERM

COc1cccc(OC)c1-c1nn2c(-c3cc(-c4ccccc4)[nH]n3)nnc2s1
IC50 [1]: 1.96 µM (active)

O=c1[nH]c(=O)n([C@H]2C[C@H](O)[C@@H](CO)O2)cc1I [IDOXURIDINE]
IC50 [2]: > 10 µM (inactive) | IC50 [3]: > 10 µM (inactive)

Cc1ccc(S(=O)(=O)N2CCN(Cc3ccccc3)CC2)c(C)c1N(C)S(=O)(=O)c1ccccc1
IC50 [4]: > 109 µM (inactive) | IC50 [5]: > 83.3 µM (inactive)

O=C(Cn1c(C(F)(F)F)nc2ccccc21)Nc1ccccc1C(=O)O
IC50 [4]: > 109 µM (inactive) | IC50 [5]: > 83.3 µM (inactive)

CN1[C@@H]2c3ccc(/C=C/c4ccccc4)c(=O)n3C[C@@H]2[C@@H](CO)[C@@H]1C(=O)NC1CCCC1
AC50 [6]: 17.5 µM (active)

CC(C)(C)C1CCC(=NN=C(S)Nc2cccnc2)CC1 (stereo not given)
IC50 [7]: > 67.5 µM (inactive)

O=C(Oc1c(CN2CCOCC2)cc(Cl)c2cccnc12)c1cccs1
EC50 [8]: > 160 µM (inactive) | IC50 (Aminopeptidase N): 72.3 µM (active) | EC50 [9]: 2.63 µM (active) | AC50 (INS1): 4.67 µM (active) | AC50 [10]: 26 µM (active)

COc1ccc2c(c1)c(/C=N/Nc1nc3ccccc3[nH]1)c(C)n2C
AC50 (INS1): 10.2 µM (active) | CC50 (Vero): 13.4 µM (active) | AC50 [10]: 26 µM (active)

COc1ccc(C(=O)n2nc(-c3ccco3)nc2N)cc1
IC50 (Prothrombin): 0.828 µM (active)

COc1ccc(OC)c(S(=O)(=O)Nc2c(C)cccc2C)c1
IC50 [4]: > 109 µM (inactive) | IC50 [5]: > 83.3 µM (inactive)

From ChEMBL document CHEMBL1201862, “PubChem BioAssay data set” (2004)
